According to patent US20170055524A1, “Aqueous Adjuvant Composition For Increasing The Efficacy Of Electrolyte Active Substances” (priority 2014, published 2017):

How the values were obtained:
[1] = tested on: apple leaf cuticles; assay: Membrane penetration test, penetration of 2,4-D DMA with antagonistic calcium; assay type: in vitro ADME; details: 2,4-D DMA alone, 5 g/L ai; 177 ppm Ca; 25° C./56% rel. air humidity
Description: (§1) The potential of the C8/10 glucamide, which is independent of the surfactant action, to promote foliar absorption of active agrochemical ingredients was determined in membrane penetration tests with apple or pear leaf cuticles. […] The stomata-free cuticles were first dried under air and then installed into stainless steel diffusion cells. After application to the original upper side of the leaf and evaporation of the test liquid, i.e. of the aqueous preparations of the active ingredients without or with the C8/10-glucamide-containing spray liquids or comparative compositions, the diffusion cells were transferred into thermostatted blocks and charged with aqueous liquid. The water used to make up the aqueous test liquids was local tap water (of known composition). At regular intervals, samples were taken and, irrespective of the test system, the proportion of active ingredient penetrated was determined either by HPLC or scintillation measurement. […] In all other HPLC variants, only an aliquot was taken. During the experiment, the temperature in the system (block, diffusion cells, liquids, etc.) and the air humidity above the spray coating on the cuticle were known exactly and were monitored. […] The analytical determination was effected either by means of HPLC (1290 Infinity, Agilent) or analysis of radioactivity (Tricarb, Perkin Elmer). […]

[2] = tested on: apple leaf cuticles; assay: Membrane penetration test, penetration of dicamba (acid); details: dicamba (acid) alone, 1.0 g/L ai; normal tap water (85 ppm Ca); 20° C./60% rel. air humidity
Description: The stomata-free cuticles were first dried under air and then installed into stainless steel diffusion cells. […] The water used to make up the aqueous test liquids was local tap water (of known composition). […] In each case, the geometric mean values of the penetration for intact membranes at the mean measurement times are given.

[3] = tested on: apple leaf cuticles; assay: Membrane penetration test, penetration of MCPA (potassium salt); assay type: in vitro ADME; details: MCPA potassium alone, 1.0 g/L ai in spray liquid; 25° C./56% rel. air humidity
Description: as §1

[4] = tested on: apple leaf cuticles; assay: Membrane penetration test, penetration of sulcotrione; assay type: in vitro ADME; details: sulcotrione alone, 0.2 g/L ai; 20° C./60% rel. air humidity
Description: as §1

CNC.O=C(O)COc1ccc(Cl)cc1Cl [2,4-D DMA, 2,4-D]
Mean penetration of 2,4-D DMA after 4 h [1]: 0.2%
Mean penetration of 2,4-D DMA after 1 day [1]: 0.3%

COc1c(Cl)ccc(Cl)c1C(=O)O [Dicamba (acid), dicamba]
Mean penetration of dicamba (acid) after 5 h [2]: 4.4%
Mean penetration of dicamba (acid) after 1 day [2]: 12.4%

Cc1cc(Cl)ccc1OCC(=O)[O-].[K+] [MCPA potassium, MCPA]
Mean penetration of MCPA (potassium salt) after 4 h [3]: 1.6%
Mean penetration of MCPA (potassium salt) after 1 day [3]: 7.2%

CS(=O)(=O)c1ccc(C(=O)C2C(=O)CCCC2=O)c(Cl)c1 [Sulcotrione, sulcotrione]
Mean penetration of sulcotrione after 5 h [4]: <1%
Mean penetration of sulcotrione after 1 day [4]: <1%
